According to US9403830B2, “Inhibitors of leukotriene production” (Boehringer Ingelheim International GmbH, priority 2012, dated 2016):

Key:
human LTA4 hydrolase = molecular target: T1, human LTA4 hydrolase (Homo sapiens, UniProt P09960); test: LTA4H Enzyme assay (peptidase, Arg-AMC cleavage); format: biochemical; details: LTA4H enzyme 1 nM, Arg-AMC substrate 50 μM, room temperature 1 h, fluorescence 380/460 nm
T1 sequence (P09960 1-611): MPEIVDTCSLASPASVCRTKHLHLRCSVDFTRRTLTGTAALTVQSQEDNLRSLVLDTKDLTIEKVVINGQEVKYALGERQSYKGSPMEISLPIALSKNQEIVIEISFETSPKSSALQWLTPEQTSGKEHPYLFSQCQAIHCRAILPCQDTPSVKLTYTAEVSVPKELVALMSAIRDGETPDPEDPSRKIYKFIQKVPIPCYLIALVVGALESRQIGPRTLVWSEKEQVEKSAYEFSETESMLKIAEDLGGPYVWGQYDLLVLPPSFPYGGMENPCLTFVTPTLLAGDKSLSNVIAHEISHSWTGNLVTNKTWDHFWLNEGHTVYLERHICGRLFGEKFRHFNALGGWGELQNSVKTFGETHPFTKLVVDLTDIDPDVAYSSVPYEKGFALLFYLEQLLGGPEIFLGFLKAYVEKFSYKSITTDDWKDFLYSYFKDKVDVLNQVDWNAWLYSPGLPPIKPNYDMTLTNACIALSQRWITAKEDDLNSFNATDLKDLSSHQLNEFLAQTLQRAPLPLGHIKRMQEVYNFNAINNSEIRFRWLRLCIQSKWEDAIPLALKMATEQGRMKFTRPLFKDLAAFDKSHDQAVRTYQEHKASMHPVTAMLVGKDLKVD
Summary of the method: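 Human LTA4H (1 nM final) incubated with compound and Arg-AMC (50 μM final) in 50 mM Tris-HCl pH 7.5, 100 mM KCl, 0.5% BSA, 1 h at room temperature. Product read as AMC fluorescence (ex 380/em 460 nm); IC50 reported.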

[1] = tested on: LTB4 synthesis in human whole blood; test: human whole blood (HWB) assay, inhibition of LTB4 production; format: cell-based; details: heparinized human whole blood, calcimycin 20 μM stimulation, plasma LTB4
Summary of the method: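 Plasma LTB4, quantified by HTRF immunoassay, is the read-out after calcimycin challenge (20 μM final, 30 min, 37 °C) of heparinized whole blood that had been pretreated with compound for 15 min at 37 °C; values given as IC50.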

| IC50 (human LTA4 hydrolase) [nM] | IC50 [1] [nM] | Structure (SMILES) |
| --- | --- | --- |
| 0.7 | 240 | CC(=O)N1CCC(N(C)Cc2ccc3cc(Oc4ccc(-c5ccn[nH]5)cn4)ccc3n2)CC1 [Example 110, 1-[4-(Methyl-{6-[5-(2H-pyrazol-3-yl)-pyridin-2-yloxy]-quinolin-2-ylmethyl}-amino)-piperidin-1-yl]-ethanone] |
| 0.27 | 170 | CC(=O)N1CCN(Cc2cc3ccc(Oc4ccc(-c5ccn[nH]5)cn4)cc3[nH]2)CC1 [Example 221, 1-(4-{6-[5-(2H-Pyrazol-3-yl)-pyridin-2-yloxy]-1H-indol-2-ylmethyl}-piperazin-1-yl)-ethanone] |
| 0.17 | 200 | c1cc(-c2ccc(Oc3ccc4[nH]c(CNCC5CCOCC5)nc4c3)cc2)[nH]n1 [Example 106, {5-[4-(2H-Pyrazol-3-yl)-phenoxy]-1H-benzoimidazol-2-ylmethyl}-(tetrahydro-pyran-4-ylmethyl)-amine] |
| 0.92 | 190 | O=C1CCCN1C1CCN(CC2Cc3ccc(Oc4ccc(-c5ccn[nH]5)cn4)cc3O2)CC1 (stereo not drawn) [Example 129, 1-(1-{6-[5-(2H-Pyrazol-3-yl)-pyridin-2-yloxy]-2,3-dihydro-benzofuran-2-ylmethyl}-piperidin-4-yl)-pyrrolidin-2-one] |
| 0.14 | 180 | OCC1CCCCN1Cc1nc2cc(Oc3ccc(-c4ccn[nH]4)cc3)ccc2[nH]1 (stereo not drawn) [Example 195, (1-{5-[4-(2H-Pyrazol-3-yl)-phenoxy]-1H-benzoimidazol-2-ylmethyl}-piperidin-2-yl)-methanol] |
| 0.43 | 180 | CCN(Cc1nc2cc(Oc3ccc(-c4ccn[nH]4)cc3)ccc2[nH]1)C(=O)C1CC1 [Example 235, Cyclopropanecarboxylic acid ethyl-{5-[4-(2H-pyrazol-3-yl)-phenoxy}-1H-benzoimidazol-2-ylmethyl}-amide] |
| 0.32 | 140 | O=S1(=O)CCN(CCn2cc3cc(Oc4ccc(-c5ccn[nH]5)cc4)ccc3n2)CC1 [Example 176, 2-[2-(1,1-Dioxo-1-λ-6-thiomorpholin-4-yl)-ethyl]-5-[4-(2H-pyrazol-3-yl)-phenoxy]-2H-indazole] |
| 0.82 | 230 | O[C@H]1CCN(Cc2ccc3cc(Oc4ccc(-c5ccn[nH]5)cn4)ccc3n2)C1 [Example 210, (S)-1-{6-[5-(2H-Pyrazol-3-yl)-pyridin-2-yloxy]-quinolin-2-ylmethyl}-pyrrolidin-3-ol] |
| 0.11 | 130 | C[C@H]1CCCCN1Cc1nc2cc(Oc3ccc(-c4ccn[nH]4)cc3)ccc2[nH]1 [Example 171, 2-((S)-2-Methyl-piperidin-1-ylmethyl)-5-[4-(2H-pyrazol-3-yl)-phenoxy]-1H-benzoimidazole] |
| 0.11 | 98 | COC1CCN(Cc2nc3cc(Oc4ccc(-c5ccn[nH]5)cc4)ccc3[nH]2)C1 (stereo not drawn) [Example 157, 2-(3-Methoxy-pyrrolidin-1-ylmethyl)-5-[4-(2H-pyrazol-3-yl)-phenoxy]-1H-benzoimidazole] |
| 0.086 | 130 | CN1CCC[C@H]1Cc1nc2cc(Oc3ccc(-c4ccn[nH]4)cc3)ccc2[nH]1 [Example 89, 2-((S)-1-Methyl-pyrrolidin-2-ylmethyl)-5-[4-(2H-pyrazol-3-yl)-phenoxy]-1H-benzoimidazole] |
| 0.48 | 160 | CC(=O)N1C[C@H]2C[C@@H]1CN2Cc1ccc2cc(Oc3ccc(-c4ccn[nH]4)cn3)ccc2n1 [Example 147, 1-((1R,4R)-5-{6-[5-(2H-Pyrazol-3-yl)-pyridin-2-yloxy]-quinolin-2-ylmethyl}-2,5-diaza-bicyclo[2.2.1]hept-2-yl)-ethanone] |
| 0.21 | 140 | COCCNCc1nc2cc(Oc3ccc(-c4ccn[nH]4)cc3)ccc2[nH]1 [Example 91, (2-Methoxy-ethyl)-{5-[4-(2H-pyrazol-3-yl)-phenoxy]-1H-benzoimidazol-2-ylmethyl}-amine] |
| 0.55 | 150 | CC(=O)N1CCN(Cc2ccc3cc(Oc4ccc(-c5cc[nH]n5)cn4)ccc3n2)CC1 [Example 231, 1-(4-{6-[5-(1H-Pyrazol-3-yl)-pyridin-2-yloxy]-quinolin-2-ylmethyl}-piperazin-1-yl)-ethanone] |
| 0.83 | 150 | CC(=O)N1CCN(CCCn2cc3cc(Oc4ccc(-c5ccn[nH]5)cc4)ccc3n2)CC1 [Example 95, 1-[4-(3-{5-[4-(2H-Pyrazol-3-yl)-phenoxy]-indazol-2-yl}-propyl)-piperazin-1-yl]-ethanone] |
| 0.48 | 90 | c1cc(-c2ccc(Oc3ccc4nc(CN5CCCCC5)ccc4c3)nc2)[nH]n1 [Example 23, 2-Piperidin-1-ylmethyl-6-[5-(2H-pyrazol-3-yl)-pyridin-2-yloxy]-quinoline] |
| 2.5 | 650 | c1cc(-c2ccc(Oc3ccn4cc(CN5CCOCC5)nc4c3)cc2)[nH]n1 [Example 257, 2-Morpholin-4-ylmethyl-7-[4-(2H-pyrazol-3-yl)-phenoxy]-imidazo[1,2-a]pyridine] |
| 0.53 | 150 | O=C(CO)N1CCN(Cc2ccc3cc(Oc4ccc(-c5ccn[nH]5)cc4)ccc3n2)CC1 [Example 10, 2-hydroxy-1-(4-{6-[4-(2H-pyrazol-3-yl)-phenoxy]-quinolin-2-ylmethyl}-piperazin-1-yl)-ethanone] |
| 0.3 | 82 | c1cc(-c2ccc(Oc3ccc4nc(CN5CCC6(COC6)C5)ccc4c3)nc2)[nH]n1 [Example 20, 2-(2-Oxa-6-aza-spiro[3.4]oct-6-ylmethyl)-6-[5-(2H-pyrazol-3-yl)-pyridin-2-yloxy]-quinoline] |
| 0.68 | 180 | O=C1[C@@H](O)CCN1C1CCN(Cc2ccc3cc(Oc4ccc(-c5ccn[nH]5)cn4)ccc3c2)CC1 [Example 7, (S)-3-Hydroxy-1-(1-{6-[5-(2H-pyrazol-3-yl)-pyridin-2-yloxy]-naphthalen-2-ylmethyl}-piperidin-4-yl)-pyrrolidin-2-one] |
| 0.46 | 180 | CN(C)C(=O)C1CCN(CC2Cc3ccc(Oc4ccc(-c5ccn[nH]5)cc4)cc3O2)CC1 (stereo not drawn) [Example 197, 1-{6-[4-(2H-Pyrazol-3-yl)-phenoxy]-2,3-dihydro-benzofuran-2-ylmethyl}-piperidine-4-carboxylic acid dimethylamide] |
| 0.37 | 160 | O=C(CO)N1CC2CCC1CN2Cc1ccc2cc(Oc3ccc(-c4ccn[nH]4)cn3)ccc2n1 (stereo not drawn) [Example 146, 2-Hydroxy-1-(5-{6-[5-(2H-pyrazol-3-yl)-pyridin-2-yloxy]-quinolin-2-ylmethyl}-2,5-diaza-bicyclo[2.2.2]oct-2-yl)-ethanone] |
| 0.17 | 140 | c1cc(-c2ccc(Oc3ccc4[nH]c(CN5CCCOCC5)nc4c3)cc2)[nH]n1 [Example 175, 2-[1,4]Oxazepan-4-ylmethyl-5-[4-(2H-pyrazol-3-yl)-phenoxy]-1H-benzoimidazole] |
| 0.75 | 500 | c1cc(-c2ccc(Oc3ccc4nc(CN5CCOCC5)oc4c3)cc2)[nH]n1 [Example 114, 2-morpholin-4-ylmethyl-6-[4-(2H-pyrazol-3-yl)-phenoxy]-benzoxazole] |
| 0.63 | 190 | CC(=O)N1CCN(CCc2coc3cc(Oc4ccc(-c5ccn[nH]5)cn4)ccc23)CC1 [Example 136, 1-[4-(2-{6-[5-(2H-Pyrazol-3-yl)-pyridin-2-yloxy]-benzofuran-3-yl}-ethyl)-piperazin-1-yl]-ethanone] |
| 0.061 | 130 | O=C(O)c1ccc(C2CCN(Cc3ccc4c(ccn4Cc4ccc(-c5ccn[nH]5)cc4)c3)CC2)cc1 [Example 124, 4-(1-{1-[4-(2H-pyrazol-3-yl)-benzyl]-1H-indol-5-ylmethyl}-piperidin-4-yl)-benzoic acid] |
| 10 | 2000 | O=C(c1cn2ccc(Oc3ccc(-c4ccn[nH]4)cc3)cc2n1)N1CCOCC1 [Example 258, Morpholin-4-yl-{7-[4-(2H-pyrazol-3-yl)-phenoxy]-imidazo[1,2-a]pyridin-2-yl}-methanone] |
| 0.13 | 150 | C[C@H]1COCCN1Cc1nc2cc(Oc3ccc(-c4ccn[nH]4)cc3)ccc2[nH]1 [Example 62, 2-((S)-3-Methyl-morpholin-4-ylmethyl)-5-[4-(2H-pyrazol-3-yl)-phenoxy]-1H-benzoimidazole] |
| 0.13 | 170 | CCOCC1CCN(Cc2nc3cc(Oc4ccc(-c5ccn[nH]5)cc4)ccc3[nH]2)CC1 [Example 193, 2-(4-Ethoxymethyl-piperidin-1-ylmethyl)-5-[4-(2H-pyrazol-3-yl)-phenoxy]-1H-benzoimidazole] |
| 0.28 | 150 | CC(=O)N1CCCN(CCc2coc3cc(Oc4ccc(-c5ccn[nH]5)cn4)ccc23)CC1 [Example 134, 1-[4-(2-{6-[5-(2H-Pyrazol-3-yl)-pyridin-2-yloxy]-benzofuran-3-yl}-ethyl)-[1,4]diazepan-1-yl]-ethanone] |
